Measured values taken from publication PMC10580319, “Quantitative Imaging of the Action of vCPP2319, an Antimicrobial Peptide from a Viral Scaffold, against Staphylococcus aureus Biofilms of a Clinical Isolate” (ACS Infectious Diseases, 2023).
Where no end group is shown, it is not given here.

Columns and labels:
[1] = system: S. aureus ATCC 6538 biofilms; experiment: Colony count assay on 24 h-preformed biofilms; assay type: cell-based, Staphylococcus aureus; conditions: 25 or 50 μM, 4 h, colony count (Figure 2C)
Protocol: (§1) The effect of vCPP2319 on 24 h-preformed S. aureus biofilms was evaluated using three distinct methods, as previously described:[24] the metabolic activity and viability of biofilm-embedded cells was determined using a resazurin reduction fluorometric assay and a colony count assay, respectively. The total biofilm biomass was quantified by using a crystal violet assay.
(§2) S. aureus suspensions at 1 × 10^6 CFU/mL were incubated in a sterile 96-well microtiter clear flat-bottomed polystyrene plate (Corning) for 24 h at 37 °C. Nonadherent bacteria were removed after a washing step with MHB, and preformed biofilms were incubated in the absence or presence of vCPP2319 at 25 or 50 μM, for 4 h at 37 °C. Untreated biofilms were used as a control. To evaluate the effect of vCPP2319 redosing on biofilm-embedded bacteria, 24 h-preformed biofilms were incubated in the absence or presence of vCPP2319 at 25 μM, for 4 h at 37 °C. After a washing step with MHB, biofilms were further incubated in the absence or presence of an additional dose of vCPP2319 at 25 or 50 μM, for 4 h at 37 °C. In both experimental settings, after two washing steps with PBS, the biofilms were resuspended in PBS, followed by cell scrapping with a pipet tip as described elsewhere.[49],[50] […] After incubation, the biofilms were removed by cell scrapping with a pipet tip as described elsewhere.[49],[50] In all experimental settings, aliquots were vortexed at high speed, serially diluted in PBS and plated on nutrient-rich trypcase soy agar (TSA) plates (bioMérieux, Marcy l’Etoile, France). After incubation for 24 h at 37 °C, bacterial colonies were counted, and viable bacteria (in CFU/mL) were reported as percentage of the control.

[2] = system: S. aureus clinical isolate biofilms; experiment: Colony count assay on 24 h-preformed biofilms; assay type: cell-based, Staphylococcus aureus; conditions: mean ± SD
Protocol: as §1, §2

[3] = system: S. aureus ATCC 6538 biofilms; experiment: Resazurin reduction fluorometric assay on 24 h-preformed biofilms; assay type: cell-based, Staphylococcus aureus; conditions: 0.78 to 50 μM, 4 h and 24 h treatment, dose-dependent
Protocol: as §1
(§3) Resazurin, the active compound in alamarBlue reagent (Invitrogen), is a blue dye that can be reduced to a pink fluorescent intermediate, resorufin, as a result of cells metabolic activity.[48]S. aureus suspensions were prepared to a final concentration of 1 × 10^6 CFU/mL and incubated in a sterile 96-well microtiter black flat-bottomed polystyrene plate (Corning) for 24 h at 37 °C. […] After washing the biofilms twice with MHB, alamarBlue reagent was added at a final concentration 10% (v/v in MHB) to each sample and its reduction was monitored by measuring the fluorescence intensity (excitation and emission wavelengths were 530 and 590 nm, respectively) of the samples every 5 min during 2 h at 37 °C, in an infinite M200 microplate reader (Tecan). […] The percentage of resazurin reduction was determined relatively to the control, after blank (10% (v/v) alamarBlue reagent in MHB) correction.

[4] = system: S. aureus clinical isolate biofilms; experiment: as above; assay type: cell-based, Staphylococcus aureus; conditions: 4 h treatment, only at 25 and 50 μM
Protocol: as §1, §3

[5] = Dynamic light scattering, self-assembly; assay type: physicochemical; conditions: DLS, in PBS, preincubated 4 h at 25 °C, 50, 100, 200 and 500 μM, two independent experiments (Figure S2)
Protocol: DLS experiments were carried out on a Zetasizer Nano ZS instrument from Malvern (Worcestershire, UK). vCPP2319, in PBS, was preincubated for 4 h, at 25 °C, at different concentrations (50, 100, 200, and 500 μM). The Z-average hydrodynamic diameter was measured using DLS in particle size analysis mode. For each experiment, a single measurement, corresponding to an autocorrelation curve averaged from a minimum of 20 runs, was performed. All measurements were performed at 25 °C. Data were obtained from two independent experiments.

[6] = system: S. aureus clinical isolate biofilm-embedded bacteria; experiment: CLSM live/dead assay, SYTO 9 / TO-PRO-3 iodide, membrane integrity; assay type: cell-based, Staphylococcus aureus; conditions: 25 and 50 μM, 4 h in PBS, inner layer z = 2 μm
Protocol: To visualize the effect of vCPP2319 on membrane integrity of biofilm-embedded bacteria, an adapted live/dead assay using SYTO 9 and TO-PRO-3 iodide (Invitrogen) was performed, as previously described.[24]S. aureus suspensions at 1 × 10^6 CFU/mL were incubated in a sterile μ-Slide 8-well plate (Ibidi) for 24 h at 37 °C. Preformed biofilms were washed once with PBS and incubated with vCPP2319 at 25 or 50 μM, in PBS, for 4 h at 37 °C. Untreated biofilms were used as a control. After a washing step with PBS, biofilms were sequentially stained with 3 μM SYTO 9 for 30 min and 4 μM TO-PRO-3 iodide for 15 min at room temperature.
SYTO 9 was excited using the Argon laser (488 nm), and both TO-PRO-3 iodide and WGA Alexa Fluor 633 were excited with the Helium–Neon laser (633 nm), respectively. […] All images were analyzed with the image processor Fiji.[54] TO-PRO-3 mean fluorescence intensity over the image was quantified from the xy plane of an inner layer (z = 2 μm, z being the distance from the surface of the glass slide) using Fiji’s incorporated plug-ins.[54] WGA mean fluorescence intensity over the image was quantified from the xy plane of an inner layer (z = 2 μm, z being the distance from the surface of the glass slide) and also from a z-projection of the sum of the z-stack slices, using Fiji’s incorporated plug-ins.[54] […]

WRRRYRRWRRRRRWRRRPRR-NH2 [vCPP2319]
viability of biofilm-embedded cells [1]: decreased bacterial viability
percentage of viable cells ([2]; 25 μM for 4 h, then second treatment at 25 μM for 4 h): 27.6 ± 13.6%
percentage of viable cells ([2]; 25 μM for 4 h, then second treatment at 50 μM for 4 h): 9.4 ± 4.7%
percentage of viable cells ([2]; first treatment 25 μM for 4 h, relative to untreated biofilm): 44.7 ± 4.3%
metabolic activity of biofilm-embedded cells [3]: significant reduction
metabolic activity of biofilm-embedded cells [4]: significantly reduced
self-assembly [5]: self-assemble into nanoparticles
membrane damage, TO-PRO-3 iodide staining [6]: increase of red-stained bacteria
